Usually IC50 stands for the concentration at which inhibition is half-maximal.

We go through 17 compounds from patent publication US10336759B2, “Salts and processes of preparing a PI3K inhibitor” (Incyte Corporation, priority 2015, dated 2019).

Experiment [1] deals with JAK2 (Homo sapiens (Human), UniProt O60674). Description: Assay A, JAK2 versus JAK1 (ratio). The format is biochemical. The conditions noted are these: ratio of IC50s, Assay A at 1 mM ATP.
The target of experiment [2] is JAK1 (Homo sapiens (Human), UniProt P23458). Description: Assay A, JAK1 IC50 at 1 mM ATP. The format is biochemical. The note with it: method of Assay A at 1 mM ATP; #3 data for enantiomer 1, #14 data for enantiomer 2.
Sequence of JAK1 (P23458 whole entry, species assumed): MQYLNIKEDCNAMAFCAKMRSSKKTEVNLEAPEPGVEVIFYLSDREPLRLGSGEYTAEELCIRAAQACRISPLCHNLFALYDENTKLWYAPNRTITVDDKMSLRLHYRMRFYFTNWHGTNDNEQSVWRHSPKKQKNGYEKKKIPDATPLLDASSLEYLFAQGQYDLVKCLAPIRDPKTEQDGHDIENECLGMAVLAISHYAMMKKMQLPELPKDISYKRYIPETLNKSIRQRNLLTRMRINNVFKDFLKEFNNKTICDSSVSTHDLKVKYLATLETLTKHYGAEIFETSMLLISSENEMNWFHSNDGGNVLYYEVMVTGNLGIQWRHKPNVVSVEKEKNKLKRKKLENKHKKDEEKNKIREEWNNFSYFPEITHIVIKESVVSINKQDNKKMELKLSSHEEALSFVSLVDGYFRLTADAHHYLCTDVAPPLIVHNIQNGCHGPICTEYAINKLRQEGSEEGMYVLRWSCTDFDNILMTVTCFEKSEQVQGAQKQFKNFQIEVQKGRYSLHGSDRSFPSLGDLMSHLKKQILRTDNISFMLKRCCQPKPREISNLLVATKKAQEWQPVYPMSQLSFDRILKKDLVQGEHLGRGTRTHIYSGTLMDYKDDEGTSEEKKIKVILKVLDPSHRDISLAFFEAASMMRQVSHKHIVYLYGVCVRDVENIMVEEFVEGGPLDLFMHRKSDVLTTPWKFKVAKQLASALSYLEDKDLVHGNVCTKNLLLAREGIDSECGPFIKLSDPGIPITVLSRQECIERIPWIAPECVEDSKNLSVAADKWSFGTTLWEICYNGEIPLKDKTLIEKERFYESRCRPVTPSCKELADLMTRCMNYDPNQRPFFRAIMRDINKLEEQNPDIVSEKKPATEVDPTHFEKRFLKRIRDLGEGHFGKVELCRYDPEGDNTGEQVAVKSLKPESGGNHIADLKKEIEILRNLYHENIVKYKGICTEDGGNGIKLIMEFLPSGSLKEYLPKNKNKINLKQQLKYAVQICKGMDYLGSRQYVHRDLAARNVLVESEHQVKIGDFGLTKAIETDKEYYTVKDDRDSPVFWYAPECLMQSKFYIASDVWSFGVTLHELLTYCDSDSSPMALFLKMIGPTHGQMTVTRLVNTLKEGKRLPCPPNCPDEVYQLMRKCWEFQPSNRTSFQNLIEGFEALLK

Sequence of JAK2 (O60674 whole entry, species assumed): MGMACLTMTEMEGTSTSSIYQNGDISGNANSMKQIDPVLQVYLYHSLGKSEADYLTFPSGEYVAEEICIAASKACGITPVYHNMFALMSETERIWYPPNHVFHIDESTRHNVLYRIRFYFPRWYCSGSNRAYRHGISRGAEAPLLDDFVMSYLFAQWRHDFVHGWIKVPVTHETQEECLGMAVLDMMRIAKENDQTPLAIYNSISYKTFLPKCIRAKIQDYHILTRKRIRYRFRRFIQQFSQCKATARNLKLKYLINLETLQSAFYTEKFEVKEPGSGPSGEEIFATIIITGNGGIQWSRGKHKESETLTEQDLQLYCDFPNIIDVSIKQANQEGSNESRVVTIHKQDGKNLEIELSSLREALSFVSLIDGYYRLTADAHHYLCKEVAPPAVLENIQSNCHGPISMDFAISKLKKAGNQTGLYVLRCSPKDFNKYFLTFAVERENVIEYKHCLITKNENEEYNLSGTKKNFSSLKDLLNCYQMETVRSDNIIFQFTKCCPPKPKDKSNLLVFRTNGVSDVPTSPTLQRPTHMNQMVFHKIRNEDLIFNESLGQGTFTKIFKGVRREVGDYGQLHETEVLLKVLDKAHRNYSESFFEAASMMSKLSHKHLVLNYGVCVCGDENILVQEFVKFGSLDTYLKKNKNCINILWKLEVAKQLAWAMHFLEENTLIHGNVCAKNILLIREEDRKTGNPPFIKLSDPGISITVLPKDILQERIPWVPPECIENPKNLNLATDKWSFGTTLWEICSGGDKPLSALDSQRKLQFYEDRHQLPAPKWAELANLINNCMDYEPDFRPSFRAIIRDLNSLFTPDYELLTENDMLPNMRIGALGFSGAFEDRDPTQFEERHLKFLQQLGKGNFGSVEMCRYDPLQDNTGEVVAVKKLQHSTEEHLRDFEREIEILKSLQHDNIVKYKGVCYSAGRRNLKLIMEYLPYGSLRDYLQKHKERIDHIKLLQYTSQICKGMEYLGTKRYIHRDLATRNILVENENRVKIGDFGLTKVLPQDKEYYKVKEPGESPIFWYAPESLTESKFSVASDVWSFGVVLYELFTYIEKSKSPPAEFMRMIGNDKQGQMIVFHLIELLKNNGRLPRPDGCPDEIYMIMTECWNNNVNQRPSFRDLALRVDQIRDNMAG

On to `N#CCC(C1CCN(c2cccc(Cl)n2)C1)n1cc(-c2ncnc3[nH]ccc23)cn1` (single isomer, unassigned) [Example 3, 3-[1-(6-chloropyridin-2-yl)pyrrolidin-3-yl]-3-[4-(7H-pyrrolo[2,3-d]pyrimidin-4-yl)-1H-pyrazol-1-yl]propanenitrile], for which, in experiment [1], the JAK2/JAK1 is greater than 10. In experiment [2], this compound gave an IC50 of less than 10 nM. On to `C[C@@H](O)c1nc2cnc3ccsc3c2n1[C@H]1CC[C@H](CC#N)OC1` [Example 1, ((2R,5S)-5-{2-[(1R)-1-hydroxyethyl]-1H-imidazo[4,5-d]thieno[3,2-b]pyridin-1-yl}tetrahydro-2H-pyran-2-yl)acetonitrile], for which, in experiment [1], the JAK2/JAK1 was greater than 10.

For `N#CCC(C1CCN(c2nc3cccnc3o2)C1)n1cc(-c2ncnc3[nH]ccc23)cn1` (stereo not drawn) [Example 4, 3-(1-[1,3]oxazolo[5,4-b]pyridin-2-ylpyrrolidin-3-yl)-3-[4-(7H-pyrrolo[2,3-. d]pyrimidin-4-yl)-1H-pyrazol-1-yl]propanenitrile], the JAK2/JAK1 in experiment [1] is greater than 10. In experiment [2], this compound gave an IC50 of less than 10 nM. On the same counts, the results for `N#CCC(CN1CCN(C(=O)c2ccc(C#N)cc2F)CC1)n1cc(-c2ncnc3[nH]ccc23)cn1` (stereo not drawn) [Example 5, 4-[(4-{3-cyano-2-[4-(7H-pyrrolo[2,3-d]pyrimidin-4-yl)-1H-pyrazol-1-yl)propyl}piperazin-1-yl)carbonyl]-3-fluorobenzonitrile] are greater than 10 and less than 10 nM. In the case of `N#CCC(CN1CCN(C(=O)c2ccc(C#N)cc2F)CC1)n1ccc(-c2ncnc3[nH]ccc23)c1` (stereo not drawn) [Example 6, 4-[(4-{3-cyano-2-[3-(7H-pyrrolo[2,3-d]pyrimidin-4-yl)-1H-pyrrol-1-yl]propyl}piperazin-1-yl)carbonyl]-3-fluorobenzonitrile], the JAK2/JAK1 in experiment [1] is greater than 10. Besides, the IC50 in experiment [2] was less than 10 nM.

Take `N#CCC1(n2cc(-c3ncnc4[nH]ccc34)cn2)CN(C2CCN(C(=O)c3ccnc(C(F)(F)F)c3F)CC2)C1` [Example 7, {1-{1-[3-Fluoro-2-(trifluoromethyl)isonicotinoyl]piperidin-4-yl}-3-[4-(7H-pyrrolo[2,3-d]pyrimidin-4-yl)-1H-pyrazol-1-yl]azetidin-3-yl}acetonitrile]: in experiment [1], the JAK2/JAK1 is reported as greater than 10. The IC50 in experiment [2] was less than 10 nM. On the same counts, the results for `N#CCC1(n2cc(-c3ncnc4[nH]ccc34)cn2)CN(C2CCN(C(=O)Nc3ccc(F)cc3C(F)(F)F)CC2)C1` [Example 8, 4-{3-(Cyanomethyl)-3-[4-(7H-pyrrolo[2,3-d]pyrimidin-4-yl)-1H-pyrazol-1-yl]azetidin-1-yl}-N-[4-fluoro-2-(trifluoromethyl)phenyl] piperidine-1-carboxamide] are greater than 10 and less than 10 nM. Turning to `N#CCC1(n2cc(-c3ncnc4[nH]ccc34)cn2)CN(C2CCN(C(=O)c3ccnc(C(F)(F)F)n3)CC2)C1` [Example 9, [3-[4-(7H-pyrrolo[2,3-d]pyrimidin-4-yl)-1H-pyrazol-1-yl]-1-(1-{[2,- (trifluoromethyl)pyrimidin-4-yl]carbonyl}piperidin-4-yl)azetidin-3-yl]acetonitrile], the JAK2/JAK1 in experiment [1] is greater than 10. This compound came in with an IC50 in experiment [2] of less than 10 nM. For `N#CC[C@]1(n2cc(-c3ncnc4[nH]ccc34)cn2)C[C@H](N2CCN(C(=O)c3ccnc(C(F)(F)F)n3)CC2)C1` [Example 10, [trans-1-[4-(7H-pyrrolo[2,3-d]pyrimidin-4-yl)-1H-pyrazol-1-yl]-3-(4-{[2-(trifluoromethyl)pyrimidin-4-yl]carbonyl}piperazin-1-yl)cyclobutyl]acetonitrile], in that order: greater than 10 and less than 10 nM. On the same counts, the results for `N#CC[C@]1(n2cc(-c3ncnc4[nH]ccc34)cn2)C[C@H](N2CCC(Oc3cc(CN4CC(O)C4)cc(C(F)(F)F)n3)CC2)C1` [Example 11, {trans-3-(4-{[4-[(3-hydroxyazetidin-1-yl)methyl]-6-(trifluoromethyl)pyridin-2-yl]oxy}piperidin-1-yl)-1-[4-(7H-pyrrolo[2,3-d]pyrimidin-4-yl)-1H-pyrazol-1-yl]cyclobutyl}acetonitrile] are greater than 10 and less than 10 nM.

On to `N#CC[C@]1(n2cc(-c3ncnc4[nH]ccc34)cn2)C[C@H](N2CCC(Oc3cc(CN4CCC[C@H]4CO)cc(C(F)(F)F)n3)CC2)C1` [Example 12], for which, in experiment [1], the JAK2/JAK1 was greater than 10. Moreover, in experiment [2], the IC50 was less than 10 nM. On the same counts, the results for `N#CC[C@]1(n2cc(-c3ncnc4[nH]ccc34)cn2)C[C@H](N2CCC(Oc3cc(CN4CCC[C@@H]4CO)cc(C(F)(F)F)n3)CC2)C1` [Example 13, {trans-3-(4-{[4-{[(2R)-2-(hydroxymethyl)pyrrolidin-1-yl]methyl}-6-(trifluoromethyl)pyridin-2-yl]oxy}piperidin-1-yl)-1-[4-(7H-pyrrolo[2,3-d]pyrimidin-4-yl)-1H-pyrazol-1-yl]cyclobutyl}acetonitrile] are greater than 10 and less than 10 nM.

On to `C[C@H](NC(=O)c1cc(F)c(N2CC(CC#N)(n3cc(-c4ncnc5[nH]ccc45)cn3)C2)cc1F)C(F)(F)F` [Example 16, 4-{3-(cyanomethyl)-3-[4-(7H-pyrrolo[2,3-d]pyrimidin-4-yl)-1H-pyrazol-1-yl]azetidin-1-yl}-2,5-difluoro-N-[(1S)-2,2,2-trifluoro-1-methylethyl]benzamide], for which the JAK2/JAK1 in experiment [1] is listed as greater than 10. The compound further gave an IC50 in experiment [2] of less than 10 nM.

On to `N#CCC1(n2cc(-c3ncnc4[nH]ccc34)cn2)CN([C@H]2CC[C@@H](Oc3cc(CCO)nc(C(F)(F)F)n3)CC2)C1` [Example 18, {1-(cis-4-{[6-(2-hydroxyethyl)-2-(trifluoromethyl)pyrimidin-4-yl]oxy}cyclohexyl)-3-[4-(7H-pyrrolo[2,3-d]pyrimidin-4-yl)-1H-pyrazol-1-yl]azetidin-3-yl}acetonitrile], for which the JAK2/JAK1 in experiment [1] is given as greater than 10. This compound also gave an IC50 in experiment [2] of less than 10 nM.

In the case of `CCNCc1cc(O[C@H]2CC[C@@H](N3CC(CC#N)(n4cc(-c5ncnc6[nH]ccc56)cn4)C3)CC2)nc(C(F)(F)F)c1` [Example 19, {1-(cis-4-{[4-[(ethylamino)methyl]-6-(trifluoromethyl)pyridin-2-yl]oxy}cyclohexyl)-3-[4-(7H-pyrrolo[2,3-d]pyrimidin-4-yl)-1H-pyrazol-1-yl]lazetidin-3-yl}acetonitrile], in experiment [1], the JAK2/JAK1 is listed as greater than 10. The IC50 in experiment [2] is less than 10 nM. On the same counts, the results for `CC(C)(O)c1cc(O[C@H]2CC[C@@H](N3CC(CC#N)(n4cc(-c5ncnc6[nH]ccc56)cn4)C3)CC2)nc(C(F)(F)F)c1` [Example 20, {1-(cis-4-{[4-(1-hydroxy-1-methylethyl)-6-(trifluoromethyl)pyridin-2-yl]oxy}cyclohexyl)-3-[4-(7H-pyrrolo[2,3-d]pyrimidin-4-yl)-1H-pyrazol-1-yl]azetidin-3-yl}acetonitrile] are greater than 10 and less than 10 nM.

With `N#CCC1(n2cc(-c3ncnc4[nH]ccc34)cn2)CN([C@H]2CC[C@@H](Oc3cc(CN4CC[C@@H](O)C4)cc(C(F)(F)F)n3)CC2)C1` [Example 21], the JAK2/JAK1 in experiment [1] is given as greater than 10. In experiment [2], this compound yielded an IC50 of less than 10 nM.
